Results published in ChEMBL document CHEMBL5523667, “Blood-stage antimalarial activity, favourable metabolic stability and in vivo toxicity of novel piperazine linked 7-chloroquinoline-triazole conjugates” (Eur J Med Chem, 2024).
Active and inactive are the calls of the source. No cut-off for these calls is given here.

What was measured:
Hemozoin = experiment: Inhibition of beta-hematin formation in Plasmodium falciparum by UV-visible SpectraMax P340 plate reader analysis
Plasmodium falciparum [1] = experiment: Resistance index, ratio of IC50 for antimalarial activity against chloroquine-resistant Plasmodium falciparum K1 to IC50 for antimalarial activity against chloroquine-sensitive Plasmodium falciparum NF54; type: functional
Plasmodium falciparum [2] = experiment: Antimalarial activity against chloroquine-resistant Plasmodium falciparum K1 assessed as inhibition of parasite growth by lactate dehydrogenase assay; type: functional, organism-based
Plasmodium falciparum [3] = experiment: Antimalarial activity against ring stage chloroquine-sensitive Plasmodium falciparum 3D7 assessed as inhibition of parasite growth by SYBR green I dye based assay; type: functional, organism-based
Falcipain 2 [4] = biological target: T1, Falcipain 2 (Plasmodium falciparum, UniProt Q9N6S8); experiment: Binding affinity to N-terminal 6His-tagged recombinant Plasmodium falciparum FP2 expressed in Escherichia coli M15 assessed as dissociation constant incubated for 15 mins in presence of lysine reactive dye by microscale thermophoretic analysis
T1 sequence (Q9N6S8 whole entry): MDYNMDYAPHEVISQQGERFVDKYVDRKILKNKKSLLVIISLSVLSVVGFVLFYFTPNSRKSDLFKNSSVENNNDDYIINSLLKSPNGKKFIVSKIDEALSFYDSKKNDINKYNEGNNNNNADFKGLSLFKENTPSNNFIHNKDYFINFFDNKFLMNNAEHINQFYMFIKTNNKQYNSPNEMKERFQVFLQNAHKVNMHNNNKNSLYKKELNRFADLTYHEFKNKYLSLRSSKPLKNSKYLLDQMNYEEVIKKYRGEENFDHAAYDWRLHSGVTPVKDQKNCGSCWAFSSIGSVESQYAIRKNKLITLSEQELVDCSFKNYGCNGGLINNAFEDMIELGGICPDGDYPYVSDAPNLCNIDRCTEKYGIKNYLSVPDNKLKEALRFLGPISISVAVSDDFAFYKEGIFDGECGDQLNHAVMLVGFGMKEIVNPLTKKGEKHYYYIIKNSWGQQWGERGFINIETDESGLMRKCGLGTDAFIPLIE

[5] = biological target: T2, Falcipain 2 (Plasmodium falciparum) (UniProt Q9N6S8); experiment: Binding affinity to N-terminal 6His-tagged recombinant Plasmodium falciparum FP2 expressed in Escherichia coli M15 assessed as association rate constant (Kon) by surface plasmon resonance analysis
T2 sequence (whole entry): T1 sequence (Q9N6S8 whole entry)

[6] = biological target: T2, Falcipain 2 (Plasmodium falciparum); experiment: Inhibition of N-terminal 6His-tagged recombinant Plasmodium falciparum FP2 expressed in Escherichia coli M15 using Z-Phe-Arg-AMC as substrate at 10 uM measured after 30 mins by microplate reader analysis relative to control
Falcipain 2 [7] = biological target: T1, Falcipain 2; experiment: Inhibition of N-terminal 6His-tagged recombinant Plasmodium falciparum FP2 expressed in Escherichia coli M15 using Z-Phe-Arg-AMC as substrate measured after 30 mins by microplate reader analysis
Plasmodium falciparum [8] = experiment: Antimalarial activity against schizont stage Plasmodium falciparum infected in erythrocytes assessed as decrease in falcipain-mediated substrate hydrolysis by measuring reduction in fluorescence intensity of the fluorogenic peptide at 5 uM pre-incubated for 1 hr followed by Z-Phe-Arg-AMC substrate addition and measured after 5 to 10 mins by confocal microscopic analysis; type: functional, organism-based; settings: Erythrocyte, time 65-70 min
Plasmodium falciparum [9] = experiment: Antimalarial activity against synchronized-trophozoite stage chloroquine-sensitive Plasmodium falciparum 3D7 assessed as inhibition of parasite growth by measuring pyknotic appearance measured upto 60 hrs by Giemsa staining based light microscopic analysis; type: functional, organism-based
Plasmodium falciparum [10] = experiment: Antimalarial activity against synchronized-schizont stage chloroquine-sensitive Plasmodium falciparum 3D7 assessed as delay in progression measured upto 60 hrs by Giemsa staining based light microscopic analysis; type: functional, organism-based
Plasmodium falciparum [11] = experiment: Antimalarial activity against trophozoite stage chloroquine-sensitive Plasmodium falciparum 3D7 assessed as growth inhibition incubated with compound for 6 hrs and measured 72 hrs post invasion by SYBR Green dye based analysis; type: functional, organism-based
Plasmodium falciparum [12] = experiment: Antimalarial activity against ring stage chloroquine-sensitive Plasmodium falciparum 3D7 assessed as growth inhibition incubated with compound for 6 hrs and measured 72 hrs post invasion by SYBR Green dye based analysis; type: functional, organism-based
Plasmodium falciparum [13] = experiment: Antimalarial activity against schizont stage chloroquine-sensitive Plasmodium falciparum 3D7 assessed as growth inhibition incubated with compound for 6 hrs and measured 72 hrs post invasion by SYBR Green dye based analysis; type: functional, organism-based
Plasmodium berghei [14] = experiment: Antimalarial activity against Plasmodium berghei ANKA infected in BALB/c mouse assessed as reduction in gametocyte development at 50 to 100 mg/kg, ip preadministered with phenylhydrazine for 3 days followed by compound administration and measured after 4 days by Giemsa staining based light microscopic analysis; type: functional, organism-based; settings: dose 50-100 mg/kg, time 4.0 day
[15] = Metabolic stability in human liver S9 fraction assessed as intrinsic clearance at 2 uM measured 90 mins by LC-MS/MS analysis; type: ADME, subcellular; settings: read-out: CLH
[16] = Drug metabolism in mouse liver S9 fraction assessed as mono-hydroxylation mediated metabolite formation at 2 uM measured for 90 mins by LC-MS/MS analysis; type: ADME, subcellular; settings: s9, 1.5 h
[17] = Stability of the compound in simulated intestinal fluid at pH 6.8 at 1 uM measured after 120 mins by LC-MS/MS analysis; type: ADME; settings: simulated gi fluid, pH 6.8, 2 h
[18] = Toxicity in mouse assessed as total distance travelled at 100 mg/kg measured over 5 mins by open field arena test (reference value: 12.45 +/- 1.48 meter); type: organism-based; settings: in vivo
[19] = Toxicity in mouse assessed as latency time to the central area at 200 mg/kg by open field test (reference value: 106.48 +/- 43.19 sec); type: organism-based; settings: in vivo, 43 s
[20] = Toxicity in mouse assessed as impairment of short-term memory at 200 mg/kg by novel object recognition test (reference value: 11.87 +/- 3.82 ); type: organism-based; settings: in vivo
[21] = Toxicity in mouse assessed as latency to fall off the rotating rod by measuring neuromuscular coordination index at 200 mg/kg by rotarod apparatus (reference value: 12.45 +/- 1.48 ); type: organism-based; settings: in vivo
[22] = Toxicity in mouse assessed as effect on food intake at 100 to 200 mg/kg measured for 7 days; type: organism-based; settings: in vivo, 168 h, dose 100-200 mg/kg, time 7 day
[23] = Toxicity in mouse assessed as cell death in liver at 100 to 200 mg/kg measured after 7 days by hematoxylin and eosin staining based analysis; type: organism-based; settings: in vivo, 168 h, dose 100-200 mg/kg, time 7 day
[24] = Toxicity in mouse assessed as cell death in kidney at 100 to 200 mg/kg measured after 7 days by hematoxylin and eosin staining based analysis; type: organism-based; settings: in vivo, 168 h, dose 100-200 mg/kg, time 7 day
[25] = Toxicity in mouse assessed as cell necrosis in liver at 100 to 200 mg/kg measured after 7 days by hematoxylin and eosin staining based analysis; type: organism-based; settings: in vivo, 168 h, dose 100-200 mg/kg, time 7 day
Plasmodium berghei [26] = experiment: Antimalarial activity against Plasmodium berghei ANKA infected in female BALB/c mouse assessed as reduction in parasitemia at 50 to 100 mg/kg, ip administered daily for 7 days by Giemsa staining based light microscopy; type: functional, organism-based; settings: dose 50-100 mg/kg, time 7.0 day
[27] = Toxicity in mouse assessed as cell necrosis in kidney at 100 to 200 mg/kg measured after 7 days by hematoxylin and eosin staining based analysis; type: organism-based; settings: in vivo, 168 h, dose 100-200 mg/kg, time 7 day
[28] = Toxicity in mouse assessed as cell necrosis in spleen at 100 to 200 mg/kg measured after 7 days by hematoxylin and eosin staining based analysis; type: organism-based; settings: in vivo, 168 h, dose 100-200 mg/kg, time 7 day
[29] = Toxicity in mouse assessed as cell apoptosis in kidney at 100 to 200 mg/kg measured after 7 days by hematoxylin and eosin staining based analysis; type: organism-based; settings: in vivo, 168 h, dose 100-200 mg/kg, time 7 day

For `O=C(Cn1cc(CN2CCN(c3ccnc4cc(Cl)ccc34)CC2)nn1)Nc1cccc([N+](=O)[O-])c1`, the IC50 (Hemozoin) was 19.9 µM, the “Ratio IC50” value (Plasmodium falciparum [1]) was 1.95 and the IC50 (Plasmodium falciparum [2]) was 1.89 µM. It also gave an IC50 (Plasmodium falciparum [3]) of 0.97 µM, a Kd (Falcipain 2 [4]) of 2.99 µM and a K [5] of 680 M⁻¹ s⁻¹. The inhibition [6] was 54.3%, the IC50 (Falcipain 2 [7]) was 8.1 µM and the Activity (Plasmodium falciparum [8]) was “Active”. The Activity (Plasmodium falciparum [9]) was “Active”, the Activity (Plasmodium falciparum [10]) was “Active” and the IC50 (Plasmodium falciparum [11]) was 1.96 µM. For the same molecule, the IC50 (Plasmodium falciparum [12]) was 10.2 µM, the IC50 (Plasmodium falciparum [13]) was 3.09 µM and the Activity (Plasmodium berghei [14]) was “Active”. For the same molecule, the microsomal CLint at 2 µM [15] was 13.5 µL/min/mg, the Drug metabolism [16] was “Metabolite_Detected” and the Stability [17] was “Stable”. The Activity [18] was 11.53 m, the Time [19] was 54.39 s and the Activity [20] was 1.889. The Activity_index [21] was 10.75, the Activity [22] was “Non-Toxic” and the Activity [23] was “Non-Toxic”. The Activity [24] was “Non-Toxic”, the Activity [25] was “Non-Toxic” and the Activity (Plasmodium berghei [26]) was “Active”. The Activity [27] was “Non-Toxic”, the Activity [28] was “Non-Toxic” and the Activity [29] was “Non-Toxic”.
